# Key:
# [1] = test system: oxazolone-induced inflamed mouse ear; assay: Oxazolone-Induced Inflamed Mouse Ear Test (Ox-IMET); format: in vivo, Adult male Cox ICR mice; settings: topical, 25 ul of 10% in ethanol, 24 h after challenge, vs control group, read-out: Percent Inhibition
# Protocol: Oxazolone-Induced Inflamed Mouse Ear Test ("Ox-IMET")
# Adult male Cox ICR mice, 25-35 g, are sensitized by applying 3% oxazolone in olive oil to the clipped abdomen of each animal using a cotton swab. One week later, the mice are challenged on the inner surface of the left ear with 3% oxazolone in aceotone. At the same time 25 ul of the test compound (10% in ethanol) is applied to the outer surface of the same ear. Twenty four hours after the challenge, the animals are sacrificed by cervical dislocation and both ears are removed. A 5 mm punch biopsy is removed from both ears and is weighed to the nearest 0.1 mg on a Cahn electrobalance. Ten animals are used per group. The study usually consists of 4 to 6 groups, of which one is a control group which is challenged on the left ear, but is not treated with a test compound. The results are expressed as percent inhibition of the swelling response compared to the control group. Statistical tests for significance between groups are made using a one way analysis of variance of the ear weight differences.
# [2] = test system: adjuvant arthritis (modified Freund's adjuvant); assay: Adjuvant Arthritis - Therapeutic; format: in vivo, Male Sprague-Dawley rats; settings: for Body Weights % Increase / Bone Resorption % Inhibition / Paw Volume % Decrease: 2 x/day, days 20 through 28
# Protocol: Adjuvant Arthritis Methodology
# Male Sprague-Dawley rats weighing 167-170 gm are allowed to acclimate to the laboratory for at least 3 days. Ten rats are then assigned to the healthy control group and the remaining rats are assigned to the arthritic group. On day 0, the rats in the arthritic group are injected subcutaneously in the middle of their tail with a modified Freund's adjuvant (MFA) at a dosage of 0.05 ml/100 gm body weight. The MFA is made by grinding Mycobacterium butyricum (Mb) and then mixing with mineral oil at a concentration of 10 mg Mb/ml of mineral oil. This is mixed in an Omni mixer for 45 minutes.
# Paw volumes and body weights are determined on days -1, 6, 13, 19, 26, and 29. On day 19, paw volume changes from day -1 are determined for the arthritic group. The rats with paw volume changes≥0.50 ml but ≤2.50 ml are randomized by paw volume changes into the treatment groups on day 20. […] On day 29, two representative rats from each treatment group are photographed, paw volumes and body weights are determined, and then the rats are sacrificed with CO2 and x-rays are taken.
# The radiographs are used to grade bone resorption. Bone resorption is graded in 20 areas of the fore and hind paws. The areas for grading on the hind paw are: distal femur end, proximal tibia and tibula, distal end of the tibia and the small bone under the tibia, calcaneous, tarsus, and metatarsus. The areas on the fore paws are: radius, ulna, carpus, and metacarpus. Each area is given a grade of 0 (no resorption) or 1 (resorption) for possible grade of 20 of each animal.
# [3] = gastric damage / gastrointestinal irritation; format: in vivo; settings: levels significantly greater than the therapeutic dose, test animals
# [4] = oral analgesic activity; format: in vivo; settings: "peripheral" type, compared to aspirin
# Protocol: In order to determine and assess pharmacological activity, testing of these compounds in animals is carried out using various assays known to those skilled in the art. […] Examples of such known tests include the carrageenan rat edema test, the oxazolone-induced inflamed mouse ear test, and the arachidonic acid-induced inflamed mouse ear test. Anti-pyretic acitivity may be tested using art-known rat models, and analgesic acitivty may be tested in art-known models such as the acetylcholine model in mice, the Randall-Selitto model in rats, and the hot-plate test in mice. Another useful art-known test is the adjuvant arthritis test which is a useful model for assessing anti-inflammatory activity and anti-resorptive activity in a chronic, rather than acute, model.
# [5] = test system: rheumatoid arthritis; assay: tablets in a patient suffering from rheumatoid arthritis; format: in vivo; settings: tablet, 200 mg Compound 11, oral, two times daily
# Protocol: (§1) Pharmaceutical Compositions in Tablet Form
# (§2) Tablets are prepared by conventional methods, such as mixing and direct compaction, formulated as follows: […]
# [6] = test system: osteoarthritis; assay: tablets in a patient suffering from osteoarthritis; format: in vivo; settings: tablet, 200 mg Compound 11, twice daily
# Protocol: as §1, §2
# [7] = test system: rheumatoid arthritis or osteoarthritis; assay: capsules in a patient afflicted with rheumatoid arthritis or osteoarthritis; format: in vivo; settings: capsule, 200 mg Compound 11, oral, once a day
# Protocol: Pharmaceutical Compositions in Capsule Form
# Capsules are prepared by conventional methods, comprised as follows: […]
smiles,measurement,setting,value
"C#CCCCC(=O)c1cc(C(C)(C)C)c(O)c(C(C)(C)C)c1 [Compound 11, 4-(5'-hexynoyl)-2,6-di-t-butylphenol]",inhibition in vivo at 10 %,[1],34.1%
same,Body Weights % Increase,"[2]; 5 mg/kg, oral",36%
same,Bone Resorption % Inhibition,"[2]; 5 mg/kg, oral",37%
same,Paw Volume % Decrease,"[2]; 5 mg/kg, oral",75%
same,Body Weights % Increase,"[2]; 15 mg/kg, oral",34%
same,Bone Resorption % Inhibition,"[2]; 15 mg/kg, oral",50%
same,Paw Volume % Decrease,"[2]; 15 mg/kg, oral",83%
same,decrease of bone resorption in arthritic animal models,[2]; arthritic animal models,ability to decrease bone resorption
same,oral anti-arthritic activity in a rat adjuvant arthritis model,"[2]; oral, dosed therapeutically",anti-arthritic activity
same,gastric damage after oral dosing,[3],very low or no gastric damage
same,oral analgesic activity,[4],superior to aspirin
same,reduction of inflammation,[5],significantly reduces the inflammation
same,benefit,[6],significant benefit
same,reduction of symptomology,[7],substantially reduces the symptomology
